Here are results for 18 compounds from patent US9708336B2, “Metallo-beta-lactamase inhibitors” (priority 2014, dated 2017).

Read-outs that look alike come from different tables or passages of the source.

As a reminder, the IC50 is the concentration at which inhibition is half-maximal.

In one assay the target is VIM-1 (Pseudomonas aeruginosa (strain ATCC 15692 / DSM 22644 / CIP 104116 / JCM 14847 / LMG 12228 / 1C / PRS 101 / PAO1), UniProt A0A0F7KYQ8). Nature of the assay: Enzyme activity: determination of IC50, fluorescence assay with CCF2-FA substrate (VIM-1). The format is biochemical. Conditions: CCF2-FA substrate.
The target in another assay is NDM-1 (Klebsiella pneumoniae, UniProt C7C422). In words: biochemical. The format is biochemical. The following applies: NDM-1 enzyme, CCF2-FA substrate; read-out: NDM-1 IC50.
The subject of assay [1] is Serratia marcescens expressing IMP-1 (CL5741). Nature of the assay: Antibiotic potentiation activity: synergistic concentration (MITC95) with imipenem, OD600 growth. In kind it is cell-based. The following applies: Serratia marcescens CL5741 (IMP-1), 95% growth inhibition. In short, it runs like this:
(§1)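 Imipenem (4 μg/ml final; 1 μg/ml as an option) was combined with compound against isolates diluted 1:100 from saline suspensions into 1.1× CAMHB. Growth was assessed by absorbance at 22–24 h, 35 °C.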

Assay [2] deals with Klebsiella pneumoniae expressing VIM-1 (IHMA599644). Described as above. The format is cell-based. The following applies: Klebsiella pneumoniae IHMA599644 (VIM-1), 95% growth inhibition. In short, it runs like this: as §1
Assay [3] has as its system Escherichia coli expressing NDM-1 (CLB30016). The description is as above. In kind it is cell-based. The following applies: (CLB30016, NDM-1), 95% growth inhibition. In outline:
as §1

The target of another assay is IMP-1 (Serratia marcescens, UniProt P52699). Nature of the assay: biochemical. The format is biochemical. Conditions: IMP-1 enzyme, CCF2-FA substrate; read-out: IMP-1 IC50.
The mark [4] stands for this setting: VIM-1 enzyme, read-out: VIM-1 IC50.

Chain of NDM-1 (C7C422 whole entry, looked up, species assumed): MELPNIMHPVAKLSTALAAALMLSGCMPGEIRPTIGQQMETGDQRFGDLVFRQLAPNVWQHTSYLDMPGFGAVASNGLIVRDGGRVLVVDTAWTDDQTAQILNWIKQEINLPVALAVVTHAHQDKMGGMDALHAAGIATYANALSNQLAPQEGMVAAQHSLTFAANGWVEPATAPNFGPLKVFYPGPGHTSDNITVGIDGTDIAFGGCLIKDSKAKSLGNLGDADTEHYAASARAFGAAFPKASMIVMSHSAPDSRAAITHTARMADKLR
Chain of IMP-1 (P52699 whole entry, looked up): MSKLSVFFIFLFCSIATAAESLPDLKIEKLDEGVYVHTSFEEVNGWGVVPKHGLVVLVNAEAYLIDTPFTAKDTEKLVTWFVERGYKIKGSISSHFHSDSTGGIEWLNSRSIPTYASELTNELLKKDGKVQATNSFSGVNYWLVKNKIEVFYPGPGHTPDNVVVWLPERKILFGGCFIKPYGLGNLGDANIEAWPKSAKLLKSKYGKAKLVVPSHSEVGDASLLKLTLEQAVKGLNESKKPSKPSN

Consider `NS(=O)(=O)c1cccc(-c2cccc3sc(NC4CCN(CCF)CC4)nc23)c1-c1nnn[nH]1` [Example 646, 3-[2-[[1-(2-fluoroethyl)-4-piperidyl]amino]-1,3-benzothiazol-4-yl]-2-(1H-tetrazol-5-yl)benzenesulfonamide], for which the IC50 at VIM-1 (VIM-1 IC50, VIM-1 enzyme) turned out to be 5.1 nM; at NDM-1, 0.851 nM; on IMP-1, 31.8 nM. Also, in assay [1], the “Serratia marcescens MITC95” value turned out to be 50 µM. Further, the “Klebsiella pneumoniae MITC95” value in assay [2] is 100 µM. The “Escherichia coli MITC95” value in assay [3] worked out at 3.125 µM.

For the compound `NS(=O)(=O)c1cccc(-c2cnc3ncccn23)c1-c1nnn[nH]1` [Example 647, 3-imidazo[1,2-a]pyrimidin-3-yl-2-(1H-tetrazol-5-yl)benzenesulfonamide], the IC50 at VIM-1 (setting [4]) came out at 83.9 nM; at NDM-1, 14.1 nM; at IMP-1, 618 nM. Besides, the “Serratia marcescens MITC95” value in assay [1] amounted to 18.75 µM. For the same compound, in assay [2], the “Klebsiella pneumoniae MITC95” value worked out at 6.25 µM. Also, the “Escherichia coli MITC95” value in assay [3] was found to be 0.25 µM.

Take `N#Cc1ccc2ncc(-c3cccc(S(N)(=O)=O)c3-c3nnn[nH]3)n2c1` [Example 648, 3-(6-cyanoimidazo[1,2-a]pyridin-3-yl)-2-(1H-tetrazol-5-yl)benzenesulfonamide]: the half-maximal inhibitory concentration (IC50) on VIM-1 (setting [4]) is 15.3 nM; at NDM-1 it was 5.11 nM; at IMP-1, 95.7 nM. The “Serratia marcescens MITC95” value in assay [1] came to 6.25 µM. Further, in assay [2], the “Klebsiella pneumoniae MITC95” value amounted to 12.5 µM. In addition, the “Escherichia coli MITC95” value in assay [3] was determined as 1.563 µM.

Turning to `N#Cc1cccc2ncc(-c3cccc(S(N)(=O)=O)c3-c3nnn[nH]3)n12` [Example 649, 3-(5-cyanoimidazo[1,2-a]pyridin-3-yl)-2-(1H-tetrazol-5-yl)benzenesulfonamide], the 50% inhibitory concentration (IC50) at VIM-1 (setting [4]) was determined as 12.8 nM; on NDM-1, 2.87 nM; on IMP-1 it was 48.4 nM. Moreover, the “Serratia marcescens MITC95” value in assay [1] is 3.125 µM. Moreover, the “Klebsiella pneumoniae MITC95” value in assay [2] turned out to be 12.5 µM. Moreover, the “Escherichia coli MITC95” value in assay [3] was found to be 2.344 µM.

As to `NS(=O)(=O)c1cccc(-c2cnc3nc(C(F)(F)F)ccn23)c1-c1nnn[nH]1` [Example 650, 2-(1H-tetrazol-5-yl)-3-[7-(trifluoromethyl)imidazo[1,2-a]pyrimidin-3-yl]benzenesulfonamide], the figures for the half-inhibitory concentration (IC50) on VIM-1 (setting [4]), at NDM-1 and on IMP-1 were 46.8 nM, 22.1 nM and 1260 nM, respectively. Also, the “Serratia marcescens MITC95” value in assay [1] is 100 µM. Further, the “Klebsiella pneumoniae MITC95” value in assay [2] turned out to be 50 µM. Further, the “Escherichia coli MITC95” value in assay [3] came to 1.563 µM.

On to `NS(=O)(=O)c1cccc(-c2cnc3cnccn23)c1-c1nnn[nH]1` [Example 651, 3-imidazo[1,2-a]pyrazin-3-yl-2-(1H-tetrazol-5-yl)benzenesulfonamide], for which the IC50 came out at 40.7 nM at VIM-1 (VIM-1 IC50, VIM-1 enzyme); 9.85 nM at NDM-1; 900 nM on IMP-1. Besides, in assay [1], the “Serratia marcescens MITC95” value is 37.5 µM. The “Klebsiella pneumoniae MITC95” value in assay [2] was 6.25 µM. Besides, in assay [3], the “Escherichia coli MITC95” value was found to be 1.172 µM.

As to `NS(=O)(=O)c1cccc(-c2cnc3ccc(Cl)nn23)c1-c1nnn[nH]1` [Example 652, 3-(6-chloroimidazo[1,2-b]pyridazin-3-yl)-2-(1H-tetrazol-5-yl)benzenesulfonamide], the values for the concentration for half-maximal inhibition (IC50) on VIM-1 (setting [4]), at NDM-1 and at IMP-1 were 27.4 nM, 5.37 nM and 167 nM, respectively. Further, the “Serratia marcescens MITC95” value in assay [1] stood at 12.5 µM. Moreover, the “Klebsiella pneumoniae MITC95” value in assay [2] was determined as 25 µM. Further, the “Escherichia coli MITC95” value in assay [3] was 1.563 µM.

Regarding `CC1(O)CCN(c2ccc(C(F)(F)F)c(S(N)(=O)=O)c2-c2nnn[nH]2)CC1` [Example 653, 3-(4-hydroxy-4-methypiperidin-1-yl)-2-(1H-tetrazol-5-yl)-6-(trifluoromethyl)benzenesulfonamide], the half-inhibitory concentration (IC50) is 4.5 nM at VIM-1 (setting [4]), 2.82 nM on NDM-1 and 4.82 nM at IMP-1. Further, the “Serratia marcescens MITC95” value in assay [1] was determined as 0.3906 µM. Further, in assay [2], the “Klebsiella pneumoniae MITC95” value stood at 6.25 µM. In addition, the “Escherichia coli MITC95” value in assay [3] was determined as 1.563 µM.

Turning to `CC1(O)CCCN(c2ccc(C(F)(F)F)c(S(N)(=O)=O)c2-c2nnn[nH]2)C1` (stereo not drawn) [Example 654, 3-(3-hydroxy-3-methylpiperidin-1-yl)-2-(1H-tetrazol-5-yl)-6-(trifluoromethyl)benzenesulfonamide], the concentration for half-maximal inhibition (IC50) stood at 1.23 nM on VIM-1 (setting [4]), 6.85 nM at NDM-1 and 19.6 nM on IMP-1. Also, in assay [1], the “Serratia marcescens MITC95” value was 1.172 µM. Besides, in assay [2], the “Klebsiella pneumoniae MITC95” value is 9.375 µM. For the same compound, the “Escherichia coli MITC95” value in assay [3] worked out at 4.688 µM.

Consider `Cc1n[nH]c2c1CN(c1ccc(C(F)(F)F)c(S(N)(=O)=O)c1-c1nnn[nH]1)CC2` [Example 655], for which the IC50 at VIM-1 (setting [4]) was 0.225 nM; on NDM-1, 0.985 nM; on IMP-1, 7.8 nM. Further, the “Serratia marcescens MITC95” value in assay [1] was 0.5859 µM. Moreover, the “Klebsiella pneumoniae MITC95” value in assay [2] is 9.375 µM. Moreover, in assay [3], the “Escherichia coli MITC95” value worked out at 2.344 µM.

For `NC(=O)C1CCN(c2ccc(C(F)(F)F)c(S(N)(=O)=O)c2-c2nnn[nH]2)CC1` [Example 656, 1-[3-sulfamoyl-2-(1H-tetrazol-5-yl)-4-(trifluoromethyl)phenyl]piperidine-4-carboxamide], the results for the IC50 on VIM-1 (setting [4]), on NDM-1 and at IMP-1 were 0.8 nM, 1.98 nM and 2.84 nM, respectively. Further, the “Serratia marcescens MITC95” value in assay [1] was found to be 0.125 µM. Further, in assay [2], the “Klebsiella pneumoniae MITC95” value is 3.125 µM. For the same compound, the “Escherichia coli MITC95” value in assay [3] was 0.5781 µM.

In the case of `NS(=O)(=O)c1c(C(F)(F)F)ccc(N2CCC[C@H](O)C2)c1-c1nnn[nH]1` [Example 657, 3-[(3S)-3-hydroxypiperidin-1-yl]-2-(1H-tetrazol-5-yl)-6-(trifluoromethyl)benzenesulfonamide], the IC50 is 2.09 nM at VIM-1 (setting [4]), 9.66 nM at NDM-1 and 10.2 nM on IMP-1. Moreover, in assay [1], the “Serratia marcescens MITC95” value was determined as 0.7813 µM. In addition, the “Klebsiella pneumoniae MITC95” value in assay [2] amounted to 4.688 µM. For the same compound, the “Escherichia coli MITC95” value in assay [3] worked out at 2.344 µM.

Take `NS(=O)(=O)c1c(C(F)(F)F)ccc(N2CC3C(CO)C3C2)c1-c1nnn[nH]1` (stereo not drawn) [Example 658, 3-[6-(hydroxymethyl)-3-azabicyclo[3.1.0]hex-3-yl]-2-(1H-tetrazol-5-yl)-6-(trifluoromethyl)benzenesulfonamide]: the 50% inhibitory concentration (IC50) on VIM-1 (setting [4]) came out at 5.26 nM; on NDM-1 it was 5.12 nM; on IMP-1 it was 7 nM. For the same compound, in assay [1], the “Serratia marcescens MITC95” value was determined as 0.7813 µM. Also, in assay [2], the “Klebsiella pneumoniae MITC95” value worked out at 12.5 µM. In addition, in assay [3], the “Escherichia coli MITC95” value worked out at 2.344 µM.

With `NS(=O)(=O)c1c(C(F)(F)F)ccc(N2CCCC(CO)C2)c1-c1nnn[nH]1` (stereo not drawn) [Example 659, 3-[3-(hydroxymethyl)piperidin-1-yl]-2-(1H-tetrazol-5-yl)-6-(trifluoromethyl)benzenesulfonamide], the concentration for half-maximal inhibition (IC50) at VIM-1 (setting [4]) is 6.4 nM; at NDM-1, 18.8 nM; on IMP-1 it was 36.3 nM. For the same compound, the “Serratia marcescens MITC95” value in assay [1] was 2.344 µM. Moreover, the “Klebsiella pneumoniae MITC95” value in assay [2] amounted to 25 µM. The “Escherichia coli MITC95” value in assay [3] came to 15.63 µM.

As to `NS(=O)(=O)c1c(C(F)(F)F)ccc(N2CCCC(CCO)C2)c1-c1nnn[nH]1` (stereo not drawn) [Example 660, 3-[3-(2-hydroxyethyl)piperidin-1-yl]-2-(1H-tetrazol-5-yl)-6-(trifluoromethyl)benzenesulfonamide], the IC50 at VIM-1 (setting [4]) was 1.31 nM; at NDM-1 it was 4.7 nM; on IMP-1, 10.4 nM. The “Serratia marcescens MITC95” value in assay [1] stood at 0.3906 µM. In addition, in assay [2], the “Klebsiella pneumoniae MITC95” value amounted to 6.25 µM. Moreover, the “Escherichia coli MITC95” value in assay [3] was 2.344 µM.

For `NS(=O)(=O)c1c(C(F)(F)F)ccc(N2CCC(CCO)CC2)c1-c1nnn[nH]1` [Example 661, 3-[4-(2-hydroxyethyl)piperidin-1-yl]-2-(1H-tetrazol-5-yl)-6-(trifluoromethyl)benzenesulfonamide], the IC50 at VIM-1 (setting [4]) came to 0.22 nM; at NDM-1, 1.01 nM; at IMP-1 it was 0.965 nM. The “Serratia marcescens MITC95” value in assay [1] worked out at 0.0625 µM. In assay [2], the “Klebsiella pneumoniae MITC95” value was 2.75 µM. In addition, in assay [3], the “Escherichia coli MITC95” value was 2.703 µM.

In the case of `NC(=O)C1CCCN(c2ccc(C(F)(F)F)c(S(N)(=O)=O)c2-c2nnn[nH]2)C1` (stereo not drawn) [Example 662, 1-[3-sulfamoyl-2-(1H-tetrazol-5-yl)-4-(trifluoromethyl)phenyl]piperidine-3-carboxamide], the concentration for half-maximal inhibition (IC50) at VIM-1 (setting [4]) was found to be 4.58 nM; on NDM-1 it was 11.6 nM; at IMP-1 it was 37.1 nM. Further, the “Serratia marcescens MITC95” value in assay [1] turned out to be 1.953 µM. The “Klebsiella pneumoniae MITC95” value in assay [2] came to 12.5 µM. Besides, the “Escherichia coli MITC95” value in assay [3] turned out to be 6.25 µM.

`NS(=O)(=O)c1c(C(F)(F)F)ccc(N2CC[C@H](CO)[C@H](F)C2)c1-c1nnn[nH]1` [Example 663, 3-[(3S,4R)-3-fluoro-4-(hydroxymethyl)piperidin-1-yl]-2-(1H-tetrazol-5-yl)-6-(trifluoromethyl)benzenesulfonamide]: the IC50 on VIM-1 (setting [4]) was found to be 0.79 nM; on NDM-1, 2.46 nM; on IMP-1, 2.94 nM. In assay [1], the “Serratia marcescens MITC95” value was 0.125 µM. For the same compound, the “Klebsiella pneumoniae MITC95” value in assay [2] was found to be 3.125 µM. Further, the “Escherichia coli MITC95” value in assay [3] is 0.8906 µM.
